We go through nine compounds from patent publication US20250367209A1 (SOUTHERN RESEARCH INSTITUTE, priority 2022, published 2025).

Test [1] has as its target Tau-Fyn interaction (Homo sapiens (Human), UniProt P10636). The test can be described thus: Tau-Fyn PLA screening in HEK-293 cells. Particulars: for PLA: Table 3, Tau-Fyn PLA; for Tau-Fyn interaction in cells, Tau-Fyn PLA in HEK-293 cells: compound 15 μM, 24 hours. The class given is cell-based. How it is done:
Tau-Fyn PLA screening in HEK-293 cells: For Tau-Fyn PLA in HEK-293 cells, we used the same plasmids as before (Rush, et al. (2020) Neurobiol Dis 134, 104668): human 4R2N Tau with an N-terminal mKate2 tag in a pcDNA3.1 vector and human Fyn with an N-terminal Myc tag in a pCMV-Sport6 vector grown in Stellar E. coli. HEK-293 cells were plated on coverslips coated with PDL and laminin in a 24-well plate in DMEM supplemented with 10% FBS and 1% PenStrep. Cells were transfected with 125 ng of Tau-mKate2 and Fyn plasmids with 1.5 μL Fugene in plain DMEM. After 24 hours, compound was applied at 15 μM. Twenty-four hours after application, cells were fixed. PLA protocol was the same as above except for different primary antibodies (Tau5 1:500, Fyn3 1:250). After image acquisition, PLA density was calculated as PLA puncta (as above) divided by cell area to account for differences in confluency. Cell area was defined with ImageJ as % Area after theresholding Tau-mKate2 fluorescence because it filled the cells evenly. Puncta/cell area was then normalized to vehicle-treated slides from that experiment.

In test [2] the target is Tau-FynSH3 interaction (Homo sapiens (Human), UniProt P10636). The test can be described thus: Tau-FynSH3 AlphaScreen. The test is classed as binding. An outline of the steps:
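Purified GST-Fyn-SH3-Strep and His-tagged human 4R2N Tau-Strep from E. coli, tested by AlphaScreen with glutathione donor and nickel chelate acceptor beads in Bis-Tris pH 7.0, TCEP, casein, Tween-20. Compound preincubated 30 min with first protein at 600 nM, then second protein 30 min, then beads 2 h.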
A general note: Alpha assays give light when donor and acceptor beads are brought close together.

Setting [3] is: Table 3, read-out: Alpha screen IC50.
Where [4] appears, read: Table 2, Tau-FynSH3 inhibitory activity in the AlphaScreen, read-out: IC50.

Read-outs that look alike come from different tables or passages of the source.

Sequence of Tau-Fyn interaction (P10636 other isoform, or with tags, fused parts or gaps): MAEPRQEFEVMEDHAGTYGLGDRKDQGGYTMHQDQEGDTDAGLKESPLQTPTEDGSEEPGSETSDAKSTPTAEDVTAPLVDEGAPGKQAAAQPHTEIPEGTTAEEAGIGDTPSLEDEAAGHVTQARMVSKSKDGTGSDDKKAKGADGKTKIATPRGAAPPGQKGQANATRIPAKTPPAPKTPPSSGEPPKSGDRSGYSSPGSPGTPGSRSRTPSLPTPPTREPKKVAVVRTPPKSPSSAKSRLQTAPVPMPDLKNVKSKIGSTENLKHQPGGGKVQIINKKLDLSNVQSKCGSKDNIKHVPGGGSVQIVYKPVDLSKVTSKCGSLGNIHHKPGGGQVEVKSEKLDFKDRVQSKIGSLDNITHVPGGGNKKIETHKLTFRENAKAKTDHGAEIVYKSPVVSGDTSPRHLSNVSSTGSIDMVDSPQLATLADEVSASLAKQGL
Sequence of Tau-FynSH3 interaction (P10636 other isoform, or with tags, fused parts or gaps): as above

Take `O=C(CN1C(=O)CSc2cc(F)c(F)cc21)Nc1nnc(-c2ccccn2)[nH]1` [compound no. 14, 2-(6,7-DIFLUORO-3-OXO-2H-BENZO[B][1,4]THIAZIN-4(3H)-YL)-N-(5-(PYRIDIN-2-YL)-4H-1,2,4-TRIAZOL-3-YL)ACETAMIDE]: in test [1], the PLA result is on record as “Inactive” and the “Tau-Fyn interaction in cells, Tau-Fyn PLA in HEK-293 cells” value (from here on “Tau-Fyn interaction in cells”) was “did not reduce Tau-Fyn interaction in cells”. Further, the IC50 in test [2] (setting [3]) was found to be 900 nM.

As to `O=C(CN1C(=O)CSc2cc(Cl)ccc21)Nc1nnc(-c2ccccn2)[nH]1` [compound no. 13, 2-(7-CHLORO-3-OXO-2H-BENZO[B][1,4]THIAZIN-4(3H)-YL)-N-(5-(PYRIDIN-2-YL)-4H-1,2,4-TRIAZOL-3-YL)ACETAMIDE], in test [1], the PLA entry is listed as “Active” and the “Tau-Fyn interaction in cells” value is on record as “reduced Tau-Fyn interaction in cells”. Further, in test [2] (setting [3]), the half-inhibitory concentration (IC50) turned out to be 930 nM.

With `O=C(CN1C(=O)CSc2cc(F)ccc21)Nc1nnc(-c2ccccn2)[nH]1` [compound no. 12, 2-(7-FLUORO-3-oxo-2H-BENZO[B][1,4]THIAZIN-4(3H)-YL)-N-(5-(PYRIDIN-2-YL)-4H-1,2,4-TRIAZOL-3-YL)ACETAMIDE], in test [1], the PLA result was “Active” and the “Tau-Fyn interaction in cells” value is “reduced Tau-Fyn interaction in cells”. The “AlphaScreen activity (in words)” value in test [2] is reported as “submicromolar IC50”. For the same compound, the IC50 in test [2] (setting [4]) is 990 nM.

Regarding `O=C(CN1CCOc2ccccc21)Nc1nnc(-c2ccccn2)[nH]1` [compound 47, 2-(2,3-DIHYDRO-4H-BENZO[B][1,4]OXAZIN-4-YL)-N-(5-(PYRIDIN-2-YL)-4H-1,2,4-TRIAZOL-3-YL)ACETAMIDE], the PLA result in test [1] is on record as “Active”. The half-maximal inhibitory concentration (IC50) in test [2] (setting [4]) stood at 320 nM; in test [2] (setting [3]) it was 910 nM.

As to `Cc1ccc2c(c1)SCC(=O)N2CC(=O)Nc1nnc(-c2ccccn2)[nH]1` [compound no. 23, 2-(7-METHYL-3-OXO-2H-BENZO[B][1,4]THIAZIN-4(3H)-YL)-N-(5-(PYRIDIN-2-YL)-4H-1,2,4-TRIAZOL-3-YL)ACETAMIDE], in test [1], the PLA result was “Active” and the “Tau-Fyn interaction in cells” value was “reduced Tau-Fyn interaction in cells”. In test [2] (setting [4]), the IC50 amounted to 790 nM.

`O=C(CN1CCSc2ccccc21)Nc1nnc(-c2ccccn2)[nH]1` [compound no. 20, 2-(2H-BENZO[B][1,4]THIAZIN-4(3H)-YL)-N-(5-(PYRIDIN-2-YL)-4H-1,2,4-TRIAZOL-3-YL)ACETAMIDE]: the half-maximal inhibitory concentration (IC50) in test [2] (setting [4]) was determined as 550 nM; in test [2] (setting [3]), 552 nM; in test [2] (unit printed as 'M', Table 2 gives 0.55 μM, read-out: IC50, inhibition in the AlphaScreen), 550 nM.

With `O=C(CCN1C(=O)CSc2ccccc21)Nc1nnc(-c2ccccn2)[nH]1` [compound no. 55], in test [1], the “Tau-Fyn interaction in cells” value is “reduced Tau-Fyn interaction in cells”. Also, the concentration for half-maximal inhibition (IC50) in test [2] (setting [4]) was found to be 5000 nM.

As to `O=C(CN1CCCc2ccccc21)Nc1nnc(-c2ccccn2)[nH]1` [compound no. 45, 2-(3,4-DIHYDROQUINOLIN-1(2H)-YL)-N-(5-(PYRIDIN-2-YL)-4H-1,2,4-TRIAZOL-3-YL)ACETAMIDE], in test [1], the PLA result is on record as “Active” and the “Tau-Fyn interaction in cells” value is “reduced Tau-Fyn interaction in cells”. Also, the IC50 in test [2] (setting [4]) came out at 1250 nM.

With `O=C(CN1CCOc2ccccc21)Nc1nnc(-c2ccccn2)[nH]1` [compound no. 69], the “Tau-Fyn interaction in cells” value in test [1] is recorded as “reduced Tau-Fyn interaction in cells”. Besides, the “AlphaScreen activity (in words)” value in test [2] is listed as “submicromolar activity”.

A word on the IC50: it is the concentration at which inhibition is half-maximal.
